Tests used:
Format in all cases: cell-based
[1] = tested on: Musclebind like protein 1 (MBNL1) in human skeletal muscle cells (hSkMc); assay: Quantification of Musclebind like protein 1 in human skeletal muscle cells by TR-FRET; conditions: for % MBNL1 vs basal level / MBNL1 levels compared to the basal control and to Argireline (in words): 0.5 mg/ml; for % MBNL1 vs basal level: 48 hours
Procedure: In vitro quantification of Musclebind like protein 1 in human skeletal muscle cells by Time resolved fluorescence resonance energy transfer.
MBNL1 induction by the peptides of the invention is evaluated by a Time resolved fluorescence resonance energy transfer (TR-FRET) assay. The aim of this study is to investigate the capacity of peptide candidates to increase MBNL-1 in human skeletal muscle cells (hSkMc).
hSkMc (Innoprot) are seeded in 12-well plates at a density of 1.5×10^4 cells/well in Skeletal Muscle Cell Growth Medium (Promocell). After 72 hours incubation, medium is removed and replaced with Skeletal Muscle Cell Differentiation Medium (Promocell). 48 hours after beginning cell differentiation, fresh differentiation medium with 0.5 mg/ml of test items is added. Treatment is continued for 48 hours and non-treated cells are used as basal control. After 48 hours of treatment, cell medium is removed and cell lysis buffer is added to wells. Immediately, plates are kept at -80° C. in order to improve protein extraction during the defrosting process. After 72 hours, cells are lysed by shaking the plates in an orbital rotor at room temperature for 45 minutes. Next, cell lysates are collected and assayed to quantify the level of MBNL-1 protein and total protein concentration.
MBNL-1 protein levels measurement is performed with Human MBNL1 Assay Kit (Cisbio) according to the manufacturer’s protocol. Briefly, the kit is used to perform a TR-FRET for MBNL1 quantification. The protein is detected with the antibodies provided in the kit and quantified by a fluorescence measurement. The quantification is carried out by using a microplate reader (ClarioStar™™™, BMG) set to 665 nm and 620 nm.
Total protein concentration of cell lysate is determined by using Pierce BCA Protein Assay Kit (Thermo Scientific) according to manufacturer’s protocol. In brief, after adding Working Reagent to the samples and the standards, the samples are incubated. Afterwards, color change is measured with an absorbance microplate reader (Clariostar™, BMG) at 562 nm. The total protein amount is used to normalize the level of MBNL1 protein concentration obtained by the TR-FRET test in the samples.

[2] = tested on: human neuroblastoma cell line (SH-SY5Y); assay: Inhibition of noradrenaline (NA) release from human neuroblastoma cells, ELISA
Text: Inhibition of noradrenaline release from human neuroblastoma cells.
Release of neurotransmitters by exocytosis in neuromuscular junctions from peripheral neurons to skeletal muscle allows muscle contraction. Face muscles are subject to said contraction and facial muscle contraction is more frequent around eyes, mouth and forehead than elsewhere in the face. With age, continuous release of neurotransmitters into neuromuscular junctions and decrease of elasticity contribute to the increase of facial wrinkles and permanent expression lines. Compounds able to block or decrease exocytosis on neuromuscular junction sites are thus good candidates for the cosmetic treatment of unaesthetic wrinkles. In vitro induction of the neurotransmitter Noradrenaline (NA) release in a human neuroblastoma cell line (SH-SY5Y) is considered a direct and reliable method for exocytosis measurement. The aim of this study is to evaluate the efficacy of the peptides of the invention on the inhibition of neuronal exocytosis by means of measuring the levels of NA release in SH-SY5Y cells by Enzyme-linked Immunosorbent Assay (ELISA).
SH-SY5Y (ECACC) cells are seeded in 12-well plates at a density of 1×10^6 cells/well. After a 6-day culture, medium is removed from wells and cells are treated for 60 minutes with the peptides of the invention dissolved in Hank’s Balanced Salt Solution (HBSS, Life Technologies) at 1 and 2.5 mg/ml. Cells treated with HBSS alone are used as a basal control. To mobilize NA vesicles, supernatants are removed and 100 nM Tetradecanoylphorbol-13-acetate (TPA, Sigma) is dissolved in the presence of test items in HBSS or dissolved in HBSS alone in the case of the basal control. After this, solutions with TPA are removed and NA release is induced by the addition of 10 µM lonomycin (Epica) with 100 nM TPA dissolved in the presence of test items in HBSS or dissolved in HBSS alone in the case of the basal control. Afterwards, the medium in the wells, containing released NA, is collected and centrifuged. Supernatants obtained are used for quantification of NA by ELISA with noradrenalin ELISA kit (IBL International) following manufacturer’s instructions. In brief, direct sandwich ELISA is performed with a plate pre-coated with an anti-NA antibody. The color obtained after substrate addition is directly proportional to the amount of NA present in each condition tested. Absorbance is read in a microplate absorbance reader (Clariostar™, BMG) at 405 nm. The percentage of NA release for each condition is calculated respect to basal control.

[3] = tested on: collagen type I in primary human dermal fibroblasts (HDFn); assay: Type I collagen synthesis on human dermal fibroblasts by ELISA; conditions: 0.5 µg/ml; for % Collagen induction: 48 hours
Text: In vitro study of type I collagen synthesis on human dermal fibroblasts by Enzyme-Linked Immunosorbent Assay.
Collagen type I is the principal collagen of skin. This molecule, which is mainly produced by fibroblasts, is responsible for the strength and resiliency of this tissue. For this reason, in vitro quantification of collagen induction by cosmetic products on human dermal fibroblasts provides information about their potential anti-aging effects on the skin. Collagen induction by the peptides of the invention is evaluated with an Enzyme-Linked Immunosorbent Assay (ELISA). The aim of this study is to investigate the ability of a product to induce collagen type I synthesis in primary human dermal fibroblasts isolated from neonatal skin (HDFn).
HDFn (Cascade) are seeded at a density of 5×10^4 in 48-well plates. After 24-hour incubation, fresh medium with scalar dilutions of the test items at 0.5 µg/ml are added. Non-treated cells are used as basal control. The cells are treated for 48 hours. Then, the medium of the wells is collected and transferred into a 96-well plate. A standard calibration curve prepared with calf skin type I collagen (Sigma) is transferred into the plate as well. The plate is left overnight in order to coat type I collagen into its surface. After that, collagen I is detected with an anti-collagen type I antibody (Sigma). The primary antibody is then recognized by a secondary antibody IgG-HRP (molecular probes). 3,3,5,5-tetramethylbenzidine liquid substrate (TMB, Sigma) is added to measure the amount of secondary antibody attached. The color produced by this reaction is measured in a microtiter plate reader (Clariostar™, BMG) and type I collagen concentration is determined using a linear regression of the standard curve.

[4] = tested on: Musclebind like protein 1 (MBNL1) in human skeletal muscle cells (hSkMc); assay: Quantification of Musclebind like protein 1 in human skeletal muscle cells by TR-FRET; conditions: 1 mg/ml; 48 hours
[5] = hSkMc, normalized to total protein
[6] = 1 mg/ml, SH-SY5Y, respect to basal control, mean of 3 assays
[7] = 2.5 mg/ml, SH-SY5Y, respect to basal control, mean of 3 assays
[8] = HDFn, versus non-treated cells, mean of 5 assays

Question: “Ac-L-Arg-L-Arg-L-Gln-D-Leu-L-Glu-L-Glu-NH2 [PEP-37]” was tested. Which “% MBNL1 vs basal level” value [1, 5] did it give?
Answer: 140.3%

Question: And the “MBNL1 levels compared to the basal control and to Argireline (in words)” value ([1]; hSkMc)?
Answer: increase MBNL1 levels

Question: Which results are given for “Ac-L-Ala-L-Arg-L-Arg-L-Gln-D-Met-L-Glu-L-Glu-L-Ala-NH2 [PEP-42]”?
Answer: % MBNL1 vs basal level [1, 5]: 144.4%; MBNL1 levels compared to the basal control and to Argireline (in words) ([1]; hSkMc): increase MBNL1 levels

Question: With “Ac-L-Arg-L-Arg-D-Gln-D-Met-L-Glu-L-Glu-NH2 [PEP-24]” as the substance, how does the “% Released NA” value [2, 6] read?
Answer: 65.8%

Question: What about the “% Released NA” value [2, 7] of the same substance?
Answer: 52.3%

Question: And the “% Collagen induction” value [3, 8]?
Answer: 104.7%

Question: And the “% MBNL1 vs basal level” value [1, 5]?
Answer: 120.9%

Question: What about the “MBNL1 levels compared to the basal control and to Argireline (in words)” value ([1]; hSkMc) of the same substance?
Answer: increase MBNL1 levels

Question: Which “% Released NA” value [2, 6] does the source give for “Ac-L-Arg-L-Arg-L-Gln-L-Met-L-Glu-L-Glu-NH2 [PEP-21]” here?
Answer: 78.9%

Question: What about the “% Released NA” value [2, 7] of the same substance?
Answer: 43.8%

Question: And the “% Collagen induction” value [3, 8]?
Answer: 119.3%

Question: What about the “Efficacy in increasing collagen type I compared with Argireline (in words)” value ([3]; HDFn) of the same substance?
Answer: even higher

Question: What about the “% MBNL1 vs basal level” value [1, 5] of the same substance?
Answer: 91.9%

Question: “Ac-L-Arg-L-Arg-L-Gln-D-Met-L-Glu-NH2 [PEP-44]” was tested. Which “% MBNL1 vs basal level” value [1, 5] did it give?
Answer: 137.8%

Question: And the “MBNL1 levels compared to the basal control and to Argireline (in words)” value ([1]; hSkMc)?
Answer: increase MBNL1 levels

Question: For “Ac-L-Lys-L-Arg-L-Gln-D-Met-L-Glu-L-Glu-NH2 [PEP-36]”, which “% MBNL1 vs basal level” value [1, 5] is on record?
Answer: 117.6%

Question: And the “MBNL1 levels compared to the basal control and to Argireline (in words)” value ([1]; hSkMc)?
Answer: increase MBNL1 levels

Question: How did the “% Released NA” value ([2]; 1 mg/ml) turn out when “ARGIRELINE [Ac—Glu—Glu—Met—Gln—Arg—Arg, reference compound]” was run?
Answer: 79.6%

Question: And the “% Released NA” value ([2]; 2.5 mg/ml)?
Answer: 63.5%

Question: What about the “% Collagen induction” value [3] of the same substance?
Answer: 109.8%

Question: And the “Effect on MBNL1 (in words)” value [1]?
Answer: no effect

Question: What about the “% MBNL1 vs basal level” value [1] of the same substance?
Answer: 96.6%

Question: And the “% MBNL1 vs basal level” value [4]?
Answer: 86.9%

Question: Which “% MBNL1 vs basal level” value [1, 5] does the source give for “Ac-L-Arg-L-Arg-L-Gln-D-Met-L-Glu-L-Gln-NH2 [PEP-31]” here?
Answer: 161.3%

Question: And the “MBNL1 levels compared to the basal control and to Argireline (in words)” value ([1]; hSkMc)?
Answer: increase MBNL1 levels

Question: With “Ac-L-Arg-L-Lys-L-Gln-D-Met-L-Glu-L-Glu-NH2 [PEP-35]” as the substance, how does the “% MBNL1 vs basal level” value [1, 5] read?
Answer: 144.3%

Question: What about the “MBNL1 levels compared to the basal control and to Argireline (in words)” value ([1]; hSkMc) of the same substance?
Answer: increase MBNL1 levels

Question: Which “% MBNL1 vs basal level” value [1, 5] does the source give for “Ac-L-Arg-L-Arg-L-Gln-D-Met-L-Glu-L-Glu-OH [PEP-26]” here?
Answer: 109.6%

Question: And the “MBNL1 levels compared to the basal control and to Argireline (in words)” value ([1]; hSkMc)?
Answer: increase MBNL1 levels

Question: For “Ac-L-Arg-L-Gln-D-Met-L-Glu-L-Glu-NH2 [PEP-43]”, which “% MBNL1 vs basal level” value [1, 5] is on record?
Answer: 112.4%

Question: What about the “MBNL1 levels compared to the basal control and to Argireline (in words)” value ([1]; hSkMc) of the same substance?
Answer: increase MBNL1 levels

Question: For “Ac-L-Arg-L-Arg-L-Asp-D-Met-L-Glu-L-Glu-NH2 [PEP-41]”, which “% MBNL1 vs basal level” value [1, 5] is on record?
Answer: 151.3%

Question: And the “MBNL1 levels compared to the basal control and to Argireline (in words)” value ([1]; hSkMc)?
Answer: increase MBNL1 levels

Question: “Ac-L-Arg-L-Arg-L-Gln-D-Met-L-Asp-L-Glu-NH2 [PEP-30]” was tested. Which “% MBNL1 vs basal level” value [1, 5] did it give?
Answer: 160.0%

Question: And the “MBNL1 levels compared to the basal control and to Argireline (in words)” value ([1]; hSkMc)?
Answer: increase MBNL1 levels

Question: How did the “% MBNL1 vs basal level” value [1, 5] turn out when “H-L-Arg-L-Arg-L-Gln-D-Met-L-Glu-L-Glu-NH2 [PEP-27]” was run?
Answer: 144.2%

Question: And the “MBNL1 levels compared to the basal control and to Argireline (in words)” value ([1]; hSkMc)?
Answer: increase MBNL1 levels
